Each block holds one molecule with its values, some of them ahead of it. Calls of active or inactive are those of the source. No cut-off for these calls is given here.
What was measured:
HEK-293T = assay: Cytotoxicity against human HEK293T cells assessed as effect on cell viability at 50 uM incubated for 24 hrs by CCK-8 assay; type: toxicity, cell-based
[1] = Glutathione reactivity in PBS buffer; type: physicochemical
[2] = biological target: NACHT, LRR and PYD domains-containing protein 3 (Homo sapiens, UniProt Q96P20); assay: Inhibition of NLRP3 inflammasome pathway in human THP-1 cells assessed as LPS-stimulated IL-1beta release pretreated with LPS for 3 hrs followed by compound addition for 30 mins prior to MSU addition and measured after 30 mins by ELISA; type: cell-based
[3] = Acute toxicity in mouse assessed as mortality at 2000 mg/kg, po measured on day 1; type: organism-based; details: in vivo, 24 h, time 1 day
[4] = Acute toxicity in C57BL/6J mouse assessed as mortality at 2000 mg/kg, po measured for 1 week; type: organism-based; details: in vivo, 168 h, time 1 weeks
[5] = Acute toxicity in po dosed C57BL/6J mouse assessed as lethal dose at measured for 1 week; type: organism-based; details: in vivo, time 1 weeks
[6] = Chronic toxicity in mouse assessed as reduction in body weight at 300 mg/kg, po administered every day for 12 days; type: organism-based; details: in vivo, 288 h, time 12 day
[7] = Chronic toxicity in ICR mouse assessed as change in nitrogen level at 300 mg/kg, po administered every day for 12 days; type: organism-based; details: in vivo, 288 h, time 12 day
[8] = Chronic toxicity in ICR mouse assessed as change in uric acid level at 300 mg/kg, po administered every day for 12 days; type: organism-based; details: in vivo, 288 h, time 12 day
[9] = Chronic toxicity in ICR mouse assessed as change in creatinine level at 300 mg/kg, po administered every day for 12 days; type: organism-based; details: in vivo, 288 h, time 12 day
[10] = Chronic toxicity in ICR mouse assessed as change in AST level at 300 mg/kg, po administered every day for 12 days; type: organism-based; details: in vivo, 288 h, time 12 day
[11] = Chronic toxicity in ICR mouse assessed as change in ALT level at 300 mg/kg, po administered every day for 12 days; type: organism-based; details: in vivo, 288 h, time 12 day
BMDM = assay: Induction ROS production in human BMDM cells by MitoSOX probe based analysis; type: functional, cell-based
[12] = Microsomal stability in human liver microsome assessed half life; type: ADME; details: liver microsomes
[13] = Cmax in ICR mouse at 1 mg/kg, iv measured upto 24 hrs by LC-MS/MS analysis; type: ADME, organism-based; details: in vivo
[14] = Cmax in ICR mouse at 10 mg/kg, po measured upto 24 hrs by LC-MS/MS analysis; type: ADME, organism-based; details: in vivo
[15] = Tmax in ICR mouse at 1 mg/kg, iv measured upto 24 hrs by LC-MS/MS analysis; type: ADME, organism-based; details: in vivo
[16] = Tmax in ICR mouse at 10 mg/kg, po measured upto 24 hrs by LC-MS/MS analysis; type: ADME, organism-based; details: in vivo
[17] = Half life in ICR mouse at 1 mg/kg, iv measured upto 24 hrs by LC-MS/MS analysis; type: ADME, organism-based; details: in vivo
[18] = Half life in ICR mouse at 10 mg/kg, po measured upto 24 hrs by LC-MS/MS analysis; type: ADME, organism-based; details: in vivo
[19] = AUC (0 to t) in ICR mouse at 1 mg/kg, iv measured upto 24 hrs by LC-MS/MS analysis; type: ADME, organism-based; details: in vivo
[20] = AUC (0 to t) in ICR mouse at 10 mg/kg, po measured upto 24 hrs by LC-MS/MS analysis; type: ADME, organism-based; details: in vivo
[21] = Clearance in ICR mouse at 1 mg/kg, iv measured upto 24 hrs by LC-MS/MS analysis; type: ADME, organism-based; details: in vivo
[22] = MRT (0 to t) in ICR mouse at 1 mg/kg, iv measured upto 24 hrs by LC-MS/MS analysis; type: ADME, organism-based; details: in vivo
[23] = MRT (0 to t) in ICR mouse at 10 mg/kg, po measured upto 24 hrs by LC-MS/MS analysis; type: ADME, organism-based; details: in vivo
[24] = Volume of distribution at steady state in ICR mouse at 1 mg/kg, iv measured upto 24 hrs by LC-MS/MS analysis; type: ADME, organism-based; details: in vivo, read-out: Vdss
[25] = Oral bioavailability in ICR mouse at 10 mg/kg measured upto 24 hrs by LC-MS/MS analysis; type: ADME, organism-based; details: in vivo
Mus musculus [26] = assay: Anti-inflammatory activity in MSU-induced acute gouty arthritis ICR mouse model assessed as reduction in ankle swelling at 30 mg/kg, po administered for 7 days; type: functional, organism-based; details: time 7.0 day
Mus musculus [27] = assay: Antialzheimer activity against scopolamine-induced cognitive impairment in C57BL/6 mouse assessed as increase in number of platform crossing at 30 mg/kg, po measured upto 14 days by morris water maze test; type: functional, organism-based; details: time <= 14.0 day
[28] = Toxicity in C57BL/6 mouse assessed as total distance travelled at 30 mg/kg, po measured up to 7 days by open field test; type: organism-based; details: in vivo, 168 h, time < 7 day

Chain of NACHT, LRR and PYD domains-containing protein 3 (Q96P20 whole entry, the tested form may be a part): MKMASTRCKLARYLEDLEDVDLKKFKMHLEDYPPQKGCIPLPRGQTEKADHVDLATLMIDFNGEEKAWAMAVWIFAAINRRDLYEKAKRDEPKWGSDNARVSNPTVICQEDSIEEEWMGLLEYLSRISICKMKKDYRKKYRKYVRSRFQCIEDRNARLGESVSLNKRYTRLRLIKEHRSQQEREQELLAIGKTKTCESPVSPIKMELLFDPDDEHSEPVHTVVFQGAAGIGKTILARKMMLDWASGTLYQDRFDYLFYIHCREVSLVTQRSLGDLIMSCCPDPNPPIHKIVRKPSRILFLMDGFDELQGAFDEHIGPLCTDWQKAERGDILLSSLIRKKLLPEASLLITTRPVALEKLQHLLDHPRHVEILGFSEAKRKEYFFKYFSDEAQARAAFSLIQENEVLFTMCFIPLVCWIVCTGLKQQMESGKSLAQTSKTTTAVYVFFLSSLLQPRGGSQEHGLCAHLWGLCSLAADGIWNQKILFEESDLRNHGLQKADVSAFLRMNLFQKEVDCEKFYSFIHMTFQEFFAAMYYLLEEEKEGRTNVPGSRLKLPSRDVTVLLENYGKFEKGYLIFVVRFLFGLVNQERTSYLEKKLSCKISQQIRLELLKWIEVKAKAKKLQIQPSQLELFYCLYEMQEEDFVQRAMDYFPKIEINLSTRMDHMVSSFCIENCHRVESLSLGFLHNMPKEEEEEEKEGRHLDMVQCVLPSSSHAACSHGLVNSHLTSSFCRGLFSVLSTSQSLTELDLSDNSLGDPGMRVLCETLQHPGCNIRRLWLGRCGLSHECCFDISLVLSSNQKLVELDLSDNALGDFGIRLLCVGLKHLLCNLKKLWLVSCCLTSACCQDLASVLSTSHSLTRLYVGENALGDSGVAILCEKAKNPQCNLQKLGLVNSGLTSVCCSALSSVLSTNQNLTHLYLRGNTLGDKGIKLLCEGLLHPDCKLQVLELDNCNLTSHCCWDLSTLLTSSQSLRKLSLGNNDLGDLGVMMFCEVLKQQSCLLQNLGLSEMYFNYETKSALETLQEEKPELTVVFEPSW

Structure (SMILES): CC(C)(O)c1coc(S(=O)(=O)NC(=O)Nc2cccc3c2CCC3)c1
- IC50 [2]: > 1000 nM

Structure (SMILES): CC(C)(O)c1coc(S(=O)(=O)NC(=O)Nn2ccc3cccnc32)c1
- IC50 [2]: > 1000 nM

Structure (SMILES): CC(C)(O)c1coc(S(=O)(=O)NC(=O)Nc2c(-c3ccc4ccccc4c3)ccc3c2CCC3)c1
- Activity (HEK-293T): Non-toxic
- Drug metabolism [1]: metabolite_detected

Structure (SMILES): CC(C)(O)c1csc(S(=O)(=O)NC(=O)Nc2c(-c3cccc(Cl)c3Cl)ccc3c2CCC3)c1
- Activity [3]: Toxic
- Activity [4]: Non-toxic
- LD50 at 168 h [5]: 2000 mg/kg
- Activity [6]: Non-toxic
- Activity [7]: Non-toxic
- Activity [8]: Non-toxic
- Activity [9]: Non-toxic
- Activity [10]: Non-toxic
- Activity [11]: Non-toxic
- Activity (BMDM): Active
- half-life [12]: 94.2 min
- Cmax [13]: 3920 ng/mL
- Cmax [14]: 7120 ng/mL
- Tmax [15]: 4.98 min
- Tmax [16]: 30 min
- half-life [17]: 154 min
- half-life [18]: 112 min
- AUC(0-t) at 24 h [19]: 2610 ng·h/mL
- AUC(0-t) at 24 h [20]: 9710 ng·h/mL
- clearance [21]: 6.1 mL/min/kg
- MRT last at 24 h [22]: 1.75 h
- MRT last at 24 h [23]: 1.73 h
- Vd [24]: 0.638 L/kg
- bioavailability [25]: 36.8%
- Activity (Mus musculus [26]): Active
- Activity (Mus musculus [27]): Active
- Activity [28]: Non-toxic

Structure (SMILES): CC(C)(O)c1coc(S(=O)(=O)NC(=O)NC2c3ccccc3-c3ccccc32)c1
- IC50 [2]: > 1000 nM

Structure (SMILES): C=C(C)c1csc(SCC(=O)Nc2c(-c3cccc(Cl)c3Cl)ccc3c2CCC3)c1
- IC50 [2]: > 1000 nM

Structure (SMILES): CC(C)(O)c1coc(S(=O)(=O)NC(=O)Nc2c(-c3ccc(N4CCOCC4)cc3)ccc3c2CCC3)c1
- IC50 [2]: > 1000 nM

Structure (SMILES): CC(C)(O)c1coc(S(=O)(=O)NC(=O)NC2CCCc3ccccc32)c1 (stereo not given)
- IC50 [2]: > 1000 nM

Now from value to molecule, other results behind:

- Drug metabolism [1]: metabolite_detected
Structure (SMILES): CC(C)(O)c1coc(S(=O)(=O)NC(=O)Nc2c(-c3cccc(Cl)c3Cl)ccc3c2CCC3)c1
- Activity (HEK-293T): Non-toxic

- IC50 [2]: > 1000 nM
Structure (SMILES): COC(=O)c1csc(CNC(=O)Nc2c(-c3cccc(Cl)c3Cl)ccc3c2CCC3)c1

- IC50 [2]: > 1000 nM
Structure (SMILES): CC(=O)c1csc(NC(=O)Nc2c(-c3cccc(Cl)c3Cl)ccc3c2CCC3)c1

- IC50 [2]: > 1000 nM
Structure (SMILES): CC(C)(O)c1coc(S(=O)(=O)NC(=O)Nc2c3c(cc(Br)c2OC2CCCCC2)CCC3)c1

From ChEMBL document CHEMBL6120950, “Deep-Learning-Driven Discovery of SN3-1, a Potent NLRP3 Inhibitor with Therapeutic Potential for Inflammatory Diseases” (J Med Chem, 2024)
